Our source for the EC50 values is patent US9000016B2, “1,3,4-Oxadiazoles-2-thio derivatives as sphingosine-1 phosphate receptors modulators” (Allergan, Inc., priority 2012, dated 2015).

Each structure is given as a SMILES string. pEC50: −log10 of the molar value.

This assay addresses T1, human S1P1 receptor (Homo sapiens, UniProt P21453).
T1 construct: expressed in transfected cells; membranes used
The assay is described as follows: GTP γ35S binding assay for S1P1 activity. It is filed as biochemical. As to conditions: membranes of cells stably expressing the S1P1 receptor, agonist potency. The procedure:
Compounds were synthesized and tested for S1P1 activity using the GTP γ^35S binding assay. These compounds may be assessed for their ability to activate or block activation of the human S1P1 receptor in cells stably expressing the S1P1 receptor.
GTP y^35S binding was measured in the medium containing (mM) HEPES 25, pH 7.4, MgCl210, NaCI 100, dithiothreitol 0.5, digitonin 0.003%, 0.2 nM GTP y^35S, and 5 µg membrane protein in a volume of 150 μl. Test compounds were included in the concentration range from 0.08 to 5,000 nM unless indicated otherwise. Membranes were incubated with 100 μM 5′-adenylylimidodiphosphate for 30 min, and subsequently with 10 μM GDP for 10 min on ice. Drug solutions and membrane were mixed, and then reactions were initiated by adding GTP y^35S and continued for 30 min at 25° C. Reaction mixtures were filtered over Whatman GF/B filters under vacuum, and washed three times with 3 mL of ice-cold buffer (HEPES 25, pH7.4, MgCl210 and NaCI 100). Filters were dried and mixed with scintillant, and counted for ^35S activity using a β-counter. Agonist-induced GTP y^35S binding was obtained by subtracting that in the absence of agonist. Binding data were analyzed using a non-linear regression method. In case of antagonist assay, the reaction mixture contained 10 nM S1 P1 in the presence of test antagonist at concentrations ranging from 0.08 to 5000 nM.
On the technique in general: Binding of GTPγS marks nucleotide exchange on a G protein.

T1 sequence (P21453 whole entry): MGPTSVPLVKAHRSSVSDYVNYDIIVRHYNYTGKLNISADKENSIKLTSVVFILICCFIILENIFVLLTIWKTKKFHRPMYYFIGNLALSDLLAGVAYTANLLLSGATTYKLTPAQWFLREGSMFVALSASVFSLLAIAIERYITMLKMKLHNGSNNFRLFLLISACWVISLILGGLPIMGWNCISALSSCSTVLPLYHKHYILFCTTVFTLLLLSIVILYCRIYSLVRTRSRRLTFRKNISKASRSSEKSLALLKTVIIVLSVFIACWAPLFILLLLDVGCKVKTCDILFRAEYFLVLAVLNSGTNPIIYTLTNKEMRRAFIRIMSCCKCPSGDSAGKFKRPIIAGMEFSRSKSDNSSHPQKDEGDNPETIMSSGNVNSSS

As for `Cc1ccc(-c2nnc(SC(C)c3ccc(CNCCC(=O)O)cc3)o2)cc1C` (centres unmarked) [Compound 3, 3-{[4-(1-{[5-(3,4-Dimethylphenyl)-1,3,4-oxadiazol-2-yl]thio}ethyl)benzyl]amino}propanoic acid], the pEC50 was 8.08.

For `Cc1ccc(-c2nnc(SC(C)c3ccc(CNCCCP(=O)(O)O)cc3)o2)cc1C` (centres unmarked) [Compound 1, (3-{[4-(1-{[5-(3,4-Dimethylphenyl)-1,3,4-oxadiazol-2-yl]thio}ethyl)benzyl]amino}propyl)phosphonic acid], the pEC50 was 7.09.

Usually pEC50 stands for the negative decadic logarithm of the EC50, by convention in mol/L. Read a low pEC50 as a large EC50.
